As usually defined, the IC50 is the concentration at which inhibition is half-maximal. Lower therefore signals higher potency.

The target in test [1] is human JAK2 (Homo sapiens (Human), UniProt O60674). In words: In vitro JAK kinase assay (Example D, HTRF), JAK2. The class given is biochemical. Particulars: ratio of JAK2 to JAK1 IC50, 1 mM ATP. On the technique in general: TR-FRET usually uses a lanthanide donor and a delayed reading to cut background.
The target in test [2] is human JAK1 (Homo sapiens, UniProt P23458). In words: In vitro JAK kinase assay (Example D, HTRF), JAK1. To be noted: 1 mM ATP. Format: biochemical.

Chain of human JAK2 (O60674 828-1132): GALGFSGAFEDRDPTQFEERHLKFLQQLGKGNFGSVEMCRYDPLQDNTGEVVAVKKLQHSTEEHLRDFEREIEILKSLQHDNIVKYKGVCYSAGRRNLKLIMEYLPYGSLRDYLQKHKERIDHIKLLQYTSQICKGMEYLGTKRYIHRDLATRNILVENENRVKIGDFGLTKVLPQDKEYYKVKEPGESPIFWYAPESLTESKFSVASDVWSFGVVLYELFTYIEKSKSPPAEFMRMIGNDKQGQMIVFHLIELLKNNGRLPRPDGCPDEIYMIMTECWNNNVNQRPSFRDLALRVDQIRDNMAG

Take `N#CCC(C1CCN(c2cccc(Cl)n2)C1)n1cc(-c2ncnc3[nH]ccc23)cn1` (single isomer, unassigned) [compound 3, 3-[1-(6-chloropyridin-2-yl)pyrrolidin-3-yl]-3-[4-(7H-pyrrolo[2,3-d]pyrimidin-4-yl)-1H-pyrazol-1-yl]propanenitrile]: in test [1], the JAK2/JAK1 is listed as more than 10. The same molecule had a half-maximal inhibitory concentration (IC50) in test [2] of less than 10 nM.
The corresponding values for `C[C@@H](O)c1nc2cnc3ccsc3c2n1[C@H]1CC[C@H](CC#N)OC1` [compound 1, ((2R,5S)-5-{2-[(1R)-1-hydroxyethyl]-1H-imidazo[4,5-d]thieno[3,2-b]pyridin-1-yl}tetrahydro-2H-pyran-2-yl)acetonitrile] are more than 10 and less than 100 nM.
With `N#CCC(C1CCN(c2nc3cccnc3o2)C1)n1cc(-c2ncnc3[nH]ccc23)cn1` (stereo not drawn) [compound 4, 3-(1-[1,3]oxazolo[5,4-b]pyridin-2-ylpyrrolidin-3-yl)-3-[4-(7H-pyrrolo[2,3-d]pyrimidin-4-yl)-1H-pyrazol-1-yl]propanenitrile], in test [1], the JAK2/JAK1 was more than 10. Also, in test [2], the IC50 is less than 10 nM.
With `N#CCC(CN1CCN(C(=O)c2ccc(C#N)cc2F)CC1)n1cc(-c2ncnc3[nH]ccc23)cn1` (stereo not drawn) [compound 5, 4-[(4-{3-cyano-2-[4-(7H-pyrrolo[2,3-d]pyrimidin-4-yl)-1H-pyrazol-1-yl]propyl}piperazin-1-yl)carbonyl]-3-fluorobenzonitrile], the JAK2/JAK1 in test [1] was more than 10. In test [2], this molecule gave a 50% inhibitory concentration (IC50) of less than 10 nM.
Taken in the same sequence, the figures for `N#CCC(CN1CCN(C(=O)c2ccc(C#N)cc2F)CC1)n1ccc(-c2ncnc3[nH]ccc23)c1` (stereo not drawn) [compound 6, 4-[(4-{3-cyano-2-[3-(7H-pyrrolo[2,3-d]pyrimidin-4-yl)-1H-pyrrol-1-yl]propyl}piperazin-1-yl)carbonyl]-3-fluorobenzonitrile] were more than 10 and less than 10 nM.
Taken in the same sequence, the figures for `N#CCC1(n2cc(-c3ncnc4[nH]ccc34)cn2)CN(C2CCN(C(=O)c3ccnc(C(F)(F)F)c3F)CC2)C1` [compound 7, {1-{1-[3-Fluoro-2-(trifluoromethyl)isonico-tinoyl]piperidin-4-yl}-3-[4-(7H-pyrrolo[2,3-d]pyrimidin-4-yl)-1H-pyrazol-1-yl]azetidin-3-yl}acetonitrile] were more than 10 and less than 10 nM.
As for `N#CCC1(n2cc(-c3ncnc4[nH]ccc34)cn2)CN(C2CCN(C(=O)Nc3ccc(F)cc3C(F)(F)F)CC2)C1` [compound 8, 4-{3-(Cyanomethyl)-3-[4-(7H-pyrrolo[2,3-d]pyrimidin-4-yl)-1H-pyrazol-1-yl]azetidin-1-yl}-N-[4-fluoro-2-(trifluoromethyl)phenyl] piperidine-1-carboxamide], the JAK2/JAK1 in test [1] is more than 10. In test [2], this molecule had an IC50 of less than 10 nM.
`N#CCC1(n2cc(-c3ncnc4[nH]ccc34)cn2)CN(C2CCN(C(=O)c3ccnc(C(F)(F)F)n3)CC2)C1` [compound 9, [3-[4-(7H-pyrrolo[2,3-d]pyrimidin-4-yl)-1H-pyrazol-1-yl]-1-(1-{[2-(trifluoromethyl)pyrim-idin-4-yl]carbonyl}piperidin-4-yl)azetidin-3-yl]acetonitrile]: the JAK2/JAK1 in test [1] is more than 10. This molecule had an IC50 in test [2] of less than 10 nM.
The corresponding values for `N#CC[C@]1(n2cc(-c3ncnc4[nH]ccc34)cn2)C[C@H](N2CCN(C(=O)c3ccnc(C(F)(F)F)n3)CC2)C1` [compound 10, [trans-1-[4-(7H-pyrrolo[2,3-d]pyrimidin-4-yl)-1H-pyrazol-1-yl]-3-(4-{[2-(trifluoromethyl)pyrim-idin-4-yl]carbonyl}piperazin-1-yl)cyclobutyl]acetonitrile] are more than 10 and less than 10 nM.
The corresponding values for `N#CC[C@]1(n2cc(-c3ncnc4[nH]ccc34)cn2)C[C@H](N2CCC(Oc3cc(CN4CC(O)C4)cc(C(F)(F)F)n3)CC2)C1` [compound 11, {trans-3-(4-{[4-[(3-hydroxyazetidin-1-yl)methyl]-6-(trifluoromethyl)pyridin-2-yl]oxy}piperidin-1-yl)-1-[4-(7H-pyrrolo[2,3-d]pyrimidin-4-yl)-1H-pyrazol-1-yl]cyclobutyl}acetonitrile] are more than 10 and less than 10 nM.
Taken in the same sequence, the figures for `N#CC[C@]1(n2cc(-c3ncnc4[nH]ccc34)cn2)C[C@H](N2CCC(Oc3cc(CN4CCC[C@H]4CO)cc(C(F)(F)F)n3)CC2)C1` [compound 12, {trans-3-(4-{[4-{[(2S)-2-(hydroxymethyl)pyrrolidin-1-yl]methyl}-6-(trifluoromethyl)pyridin-2-yl]oxy}piperidin-1-yl)-1-[4-(7H-pyrrolo[2,3-d]pyrimidin-4-yl)-1H-pyrazol-1-yl]cyclobutyl}acetonitrile] were more than 10 and less than 10 nM.
Take `N#CC[C@]1(n2cc(-c3ncnc4[nH]ccc34)cn2)C[C@H](N2CCC(Oc3cc(CN4CCC[C@@H]4CO)cc(C(F)(F)F)n3)CC2)C1` [compound 13, {trans-3-(4-{[4-{[(2R)-2-(hydroxymethyl)pyrrolidin-1-yl]methyl}-6-(trifluoromethyl)pyridin-2-yl]oxy}piperidin-1-yl)-1-[4-(7H-pyrrolo[2,3-d]pyrimidin-4-yl)-1H-pyrazol-1-yl]cyclobutyl}acetonitrile]: in test [1], the JAK2/JAK1 was more than 10. In test [2], the half-maximal inhibitory concentration (IC50) is less than 10 nM.
The corresponding values for `C[C@H](NC(=O)c1cc(F)c(N2CC(CC#N)(n3cc(-c4ncnc5[nH]ccc45)cn3)C2)cc1F)C(F)(F)F` [compound 16, 4-{3-(cyanomethyl)-3-[4-(7H-pyrrolo[2,3-d]pyrimidin-4-yl)-1H-pyrazol-1-yl]azetidin-1-yl}-2,5-difluoro-N-[(1S)-2,2,2-trifluoro-1-methylethyl]benzamide] are more than 10 and less than 10 nM.
The corresponding values for `N#CCC1(n2cc(-c3ncnc4[nH]ccc34)cn2)CN([C@H]2CC[C@@H](Oc3cc(CCO)nc(C(F)(F)F)n3)CC2)C1` [compound 18, {1-(cis-4-{[6-(2-hydroxyethyl)-2-(trifluoromethyl)pyrimidin-4-yl]oxy}cyclohexyl)-3-[4-(7H-pyrrolo[2,3-d]pyrimidin-4-yl)-1H-pyrazol-1-yl]azetidin-3-yl}acetonitrile] are more than 10 and less than 10 nM.
The corresponding values for `CCNCc1cc(O[C@H]2CC[C@@H](N3CC(CC#N)(n4cc(-c5ncnc6[nH]ccc56)cn4)C3)CC2)nc(C(F)(F)F)c1` [compound 19, {1-(cis-4-{[4-[(ethylamino)methyl]-6-(trifluoromethyl)pyridin-2-yl]oxy}cyclohexyl)-3-[4-(7H-pyrrolo[2,3-d]pyrimidin-4-yl)-1H-pyrazol-1-yl]azetidin-3-yl]acetonitrile] are more than 10 and less than 10 nM.
As for `N#CCC1(n2cc(-c3ncnc4[nH]ccc34)cn2)CN([C@H]2CC[C@@H](Oc3cc(CN4CC[C@@H](O)C4)cc(C(F)(F)F)n3)CC2)C1` [compound 21, {1-(cis-4-{[4-{[(3R)-3-hydroxypyrrolidin-1-yl]methyl}-6-(trifluoromethyl)pyridin-2-yl]oxy}cyclohexyl)-3-[4-(7H-pyrrolo[2,3-d]pyrimidin-4-yl)-1H-pyrazol-1-yl]azetidin-3-yl}acetonitrile], the JAK2/JAK1 in test [1] was more than 10. In addition, in test [2], the IC50 was less than 10 nM.
For `N#CCC1(n2cc(-c3ncnc4[nH]ccc34)cn2)CN([C@H]2CC[C@@H](Oc3cc(CN4CC[C@H](O)C4)cc(C(F)(F)F)n3)CC2)C1` [compound 22, {1-(cis-4-{[4-{[(3S)-3-hydroxypyrrolidin-1-yl]methyl}-6-(trifluoromethyl)pyridin-2-yl]oxy}cyclohexyl)-3-[4-(7H-pyrrolo[2,3-d]pyrimidin-4-yl)-1H-pyrazol-1-yl]azetidin-3-yl}acetonitrile], the JAK2/JAK1 in test [1] is recorded as more than 10. In test [2], this molecule showed an IC50 of less than 10 nM.
Taken in the same sequence, the figures for `C[C@@H](CO)NCc1cc(OC2CCN([C@H]3C[C@](CC#N)(n4cc(-c5ncnc6[nH]ccc56)cn4)C3)CC2)nc(C(F)(F)F)c1` [compound 23, {trans-3-(4-{[4-({[(1S)-2-hydroxy-1-methylethyl]amino}methyl)-6-(trifluoromethyl)pyridin-2-yl]oxy}piperidin-1-yl)-1-[4-(7H-pyrrolo[2,3-d]pyrimidin-4-yl)-1H-pyrazol-1-yl]cyclobutyl}acetonitrile] were more than 10 and less than 10 nM.
For `C[C@@H](O)CNCc1cc(OC2CCN([C@H]3C[C@](CC#N)(n4cc(-c5ncnc6[nH]ccc56)cn4)C3)CC2)nc(C(F)(F)F)c1` [compound 24, {trans-3-(4-{[4-({[(2R)-2-hydroxypropyl]amino}methyl)-6-(trifluoromethyl)pyridin-2-yl]oxy}piperidin-1-yl)-1-[4-(7H-pyrrolo[2,3-d]pyrimidin-4-yl)-1H-pyrazol-1-yl]cyclobutyl}acetonitrile], in test [1], the JAK2/JAK1 is recorded as more than 10. Also, the IC50 in test [2] is less than 10 nM.
`C[C@H](O)CNCc1cc(OC2CCN([C@H]3C[C@](CC#N)(n4cc(-c5ncnc6[nH]ccc56)cn4)C3)CC2)nc(C(F)(F)F)c1` [compound 25, {trans-3-(4-{[4-({[(2S)-2-hydroxypropyl]amino}methyl)-6-(trifluoromethyl)pyridin-2-yl]oxy}piperidin-1-yl)-1-[4-(7H-pyrrolo[2,3-d]pyrimidin-4-yl)-1H-pyrazol-1-yl]cyclobutyl}acetonitrile]: in test [1], the JAK2/JAK1 was more than 10. Besides, in test [2], the IC50 was less than 10 nM.
Taken in the same sequence, the figures for `N#CC[C@]1(n2cc(-c3ncnc4[nH]ccc34)cn2)C[C@H](N2CCC(Oc3cc(CCO)cc(C(F)(F)F)n3)CC2)C1` [compound 26, {trans-3-(4-{[4-(2-hydroxyethyl)-6-(trifluoromethyl)pyridin-2-yl]oxy}piperidin-1-yl)-1-[4-(7H-pyrrolo[2,3-d]pyrimidin-4-yl)-1H-pyrazol-1-yl]cyclobutyl}acetonitrile] were more than 10 and less than 10 nM.

The values above are taken from patent publication US9732097B2, “Process for the synthesis of a phosphoinositide 3-kinase inhibitor” (Incyte Corporation, priority 2015, dated 2017).
